From patent US9738634B2, “Heterocyclic amide compound and herbicide” (SYNGENTA PARTICIPATIONS AG, priority 2013, dated 2017)

What was measured:
Assay type in all cases: in vivo
Details in all cases: treatment dosage 320 g/ha
soybean [1] = assay: Test Example 4: foliar treatment, effect on crop; d: soybean
How it was run: (§1)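 Seeds are spot-sown into sterilized diluvial soil and covered with about 1.5 cm of soil. After 14 days' greenhouse growth at 25 to 30° C, plants are sprayed on stems and leaves with diluted emulsion at the stated g/ha rate, then scored at 3 weeks.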

Italian ryegrass [2] = assay: Test Example 4: weedkilling efficacy by foliar treatment; I: Italian ryegrass
How it was run: as §1

Indian mallow [3] = assay: Test Example 3: weedkilling efficacy through soil treatment; K: Indian mallow
How it was run: (§2)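 Crop and weed responses were judged three weeks after a uniform surface spray of the water-diluted emulsion at the given g/ha rate. Seeds sat beneath about 1.5 cm of sterilized diluvial soil, and boxes stood in a greenhouse at 25 to 30° C.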

black-grass [4] = assay: Test Example 3: weedkilling efficacy through soil treatment; H: black-grass
How it was run: as §2

corn [5] = assay: Test Example 3: soil treatment, effect on crop; c: corn
How it was run: as §2

rapeseed [6] = assay: Test Example 3: soil treatment, effect on crop; g: rapeseed
How it was run: as §2

redroot pigweed [7] = assay: Test Example 3: weedkilling efficacy through soil treatment; L: redroot pigweed
How it was run: as §2

beet [8] = assay: Test Example 4: foliar treatment, effect on crop; f: beet
How it was run: as §1

chickweed [9] = assay: Test Example 4: weedkilling efficacy by foliar treatment; N: chickweed
How it was run: as §1

directly sown rice [10] = assay: Test Example 4: foliar treatment, effect on crop; b: directly sown rice
How it was run: as §1

wheat [11] = assay: Test Example 3: soil treatment, effect on crop; e: wheat
How it was run: as §2

crabgrass [12] = assay: Test Example 4: weedkilling efficacy by foliar treatment; D: crabgrass
How it was run: as §1

rapeseed [13] = assay: Test Example 4: foliar treatment, effect on crop; g: rapeseed
How it was run: as §1

catchweed [14] = assay: Test Example 4: weedkilling efficacy by foliar treatment; O: catchweed
How it was run: as §1

fig-leafed goosefoot [15] = assay: Test Example 4: weedkilling efficacy by foliar treatment; M: fig-leafed goosefoot
How it was run: as §1

common wind-grass [16] = assay: Test Example 4: weedkilling efficacy by foliar treatment; J: common wind-grass
How it was run: as §1

bulrush [17] = assay: Test Example 1: weedkilling efficacy, preemergent weed treatment in the submerged state; B: bulrush
How it was run: (§3)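 Pre-emergence paddy test: weed seeds sown in submerged alluvial soil (4 cm water), 2.5-leaf rice transplanted, water-diluted emulsion applied to water surface at sowing at stated g/ha. Scored at 3 weeks, greenhouse 25–30 °C.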

barnyard grass [18] = assay: Test Example 3: weedkilling efficacy through soil treatment; F: barnyard grass
How it was run: as §2

crabgrass [19] = assay: Test Example 3: weedkilling efficacy through soil treatment; D: crabgrass
How it was run: as §2

barnyard grass [20] = assay: Test Example 2: weedkilling efficacy, growth period weed treatment in the submerged state; A: barnyard grass
How it was run: (§4)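 Seedlings at 1-2 leaves in 4 cm-deep submerged alluvial soil received emulsion formulations on the water surface, dosed per hectare; effects were judged 3 weeks on.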

common wind-grass [21] = assay: Test Example 3: weedkilling efficacy through soil treatment; J: common wind-grass
How it was run: as §2

Indian mallow [22] = assay: Test Example 4: weedkilling efficacy by foliar treatment; K: Indian mallow
How it was run: as §1

green foxtail [23] = assay: Test Example 3: weedkilling efficacy through soil treatment; E: green foxtail
How it was run: as §2

black-grass [24] = assay: Test Example 4: weedkilling efficacy by foliar treatment; H: black-grass
How it was run: as §1

corn [25] = assay: Test Example 4: foliar treatment, effect on crop; c: corn
How it was run: as §1

green foxtail [26] = assay: Test Example 4: weedkilling efficacy by foliar treatment; E: green foxtail
How it was run: as §1

beet [27] = assay: Test Example 3: soil treatment, effect on crop; f: beet
How it was run: as §2

birds-eye speedwell [28] = assay: Test Example 4: weedkilling efficacy by foliar treatment; p: birds-eye speedwell
How it was run: as §1

directly sown rice [29] = assay: Test Example 3: soil treatment, effect on crop; b: directly sown rice
How it was run: as §2

fig-leafed goosefoot [30] = assay: Test Example 3: weedkilling efficacy through soil treatment; M: fig-leafed goosefoot
How it was run: as §2

barnyard grass [31] = assay: Test Example 4: weedkilling efficacy by foliar treatment; F: barnyard grass
How it was run: as §1

oval-leafed pondweed [32] = assay: Test Example 2: weedkilling efficacy, growth period weed treatment in the submerged state; C: oval-leafed pondweed
How it was run: as §4

catchweed [33] = assay: Test Example 3: weedkilling efficacy through soil treatment; O: catchweed
How it was run: as §2

soybean [34] = assay: Test Example 3: soil treatment, effect on crop; d: soybean
How it was run: as §2

wheat [35] = assay: Test Example 4: foliar treatment, effect on crop; e: wheat
How it was run: as §1

bulrush [36] = assay: Test Example 2: weedkilling efficacy, growth period weed treatment in the submerged state; B: bulrush
How it was run: as §4

redroot pigweed [37] = assay: Test Example 4: weedkilling efficacy by foliar treatment; L: redroot pigweed
How it was run: as §1

oval-leafed pondweed [38] = assay: Test Example 1: weedkilling efficacy, preemergent weed treatment in the submerged state; C: oval-leafed pondweed
How it was run: as §3

wild oat [39] = assay: Test Example 3: weedkilling efficacy through soil treatment; G: wild oat
How it was run: as §2

barnyard grass [40] = assay: Test Example 1: weedkilling efficacy, preemergent weed treatment in the submerged state; A: barnyard grass
How it was run: as §3

Italian ryegrass [41] = assay: Test Example 3: weedkilling efficacy through soil treatment; I: Italian ryegrass
How it was run: as §2

transplanted rice = assay: Test Example 1: preemergent weed treatment in the submerged state, effect on crop; a: transplanted rice
How it was run: as §3

birds-eye speedwell [42] = assay: Test Example 3: weedkilling efficacy through soil treatment; p: birds-eye speedwell
How it was run: as §2

wild oat [43] = assay: Test Example 4: weedkilling efficacy by foliar treatment; G: wild oat
How it was run: as §1

chickweed [44] = assay: Test Example 3: weedkilling efficacy through soil treatment; N: chickweed
How it was run: as §2

For `CCc1cc(F)nc(NC(=O)C(C)(C)N2COC(C)=C(c3ccccc3)C2=O)c1` [B-2-39], the “d (soybean) effect on crop grade” value (soybean [1]) was 4 (weed kill ratio 70% or more, less than 90%), the “I (Italian ryegrass) weedkilling efficacy grade” value (Italian ryegrass [2]) was 5 (weed kill ratio 90% or more, (practically complete withering)) and the “K (Indian mallow) weedkilling efficacy grade” value (Indian mallow [3]) was 2 (weed kill ratio 20% or more, less than 40%). For the same compound, the “H (black-grass) weedkilling efficacy grade” value (black-grass [4]) was 5 (weed kill ratio 90% or more, (practically complete withering)), the “c (corn) effect on crop grade” value (corn [5]) was 0 (weed kill ratio 5% or less (practically no effect)) and the “g (rapeseed) effect on crop grade” value (rapeseed [6]) was 4 (weed kill ratio 70% or more, less than 90%). For the same compound, the “L (redroot pigweed) weedkilling efficacy grade” value (redroot pigweed [7]) was 3 (weed kill ratio 40% or more, less than 70%), the “f (beet) effect on crop grade” value (beet [8]) was 4 (weed kill ratio 70% or more, less than 90%) and the “N (chickweed) weedkilling efficacy grade” value (chickweed [9]) was 4 (weed kill ratio 70% or more, less than 90%). The “b (directly sown rice) effect on crop grade” value (directly sown rice [10]) was 4 (weed kill ratio 70% or more, less than 90%), the “e (wheat) effect on crop grade” value (wheat [11]) was 0 (weed kill ratio 5% or less (practically no effect)) and the “D (crabgrass) weedkilling efficacy grade” value (crabgrass [12]) was 5 (weed kill ratio 90% or more, (practically complete withering)). The “g (rapeseed) effect on crop grade” value (rapeseed [13]) was 4 (weed kill ratio 70% or more, less than 90%), the “O (catchweed) weedkilling efficacy grade” value (catchweed [14]) was 4 (weed kill ratio 70% or more, less than 90%) and the “M (fig-leafed goosefoot) weedkilling efficacy grade” value (fig-leafed goosefoot [15]) was 5 (weed kill ratio 90% or more, (practically complete withering)). For the same compound, the “J (common wind-grass) weedkilling efficacy grade” value (common wind-grass [16]) was 5 (weed kill ratio 90% or more, (practically complete withering)), the “B (bulrush) weedkilling efficacy grade” value (bulrush [17]) was 5 (weed kill ratio 90% or more, (practically complete withering)) and the “F (barnyard grass) weedkilling efficacy grade” value (barnyard grass [18]) was 5 (weed kill ratio 90% or more, (practically complete withering)). For the same compound, the “D (crabgrass) weedkilling efficacy grade” value (crabgrass [19]) was 5 (weed kill ratio 90% or more, (practically complete withering)), the “A (barnyard grass) weedkilling efficacy grade” value (barnyard grass [20]) was 5 (weed kill ratio 90% or more, (practically complete withering)) and the “J (common wind-grass) weedkilling efficacy grade” value (common wind-grass [21]) was 5 (weed kill ratio 90% or more, (practically complete withering)). The “K (Indian mallow) weedkilling efficacy grade” value (Indian mallow [22]) was 4 (weed kill ratio 70% or more, less than 90%), the “E (green foxtail) weedkilling efficacy grade” value (green foxtail [23]) was 5 (weed kill ratio 90% or more, (practically complete withering)) and the “H (black-grass) weedkilling efficacy grade” value (black-grass [24]) was 5 (weed kill ratio 90% or more, (practically complete withering)). The “c (corn) effect on crop grade” value (corn [25]) was 4 (weed kill ratio 70% or more, less than 90%), the “E (green foxtail) weedkilling efficacy grade” value (green foxtail [26]) was 5 (weed kill ratio 90% or more, (practically complete withering)) and the “f (beet) effect on crop grade” value (beet [27]) was 3 (weed kill ratio 40% or more, less than 70%). For the same compound, the “P (birds-eye speedwell) weedkilling efficacy grade” value (birds-eye speedwell [28]) was 5 (weed kill ratio 90% or more, (practically complete withering)), the “b (directly sown rice) effect on crop grade” value (directly sown rice [29]) was 4 (weed kill ratio 70% or more, less than 90%) and the “M (fig-leafed goosefoot) weedkilling efficacy grade” value (fig-leafed goosefoot [30]) was 4 (weed kill ratio 70% or more, less than 90%). The “F (barnyard grass) weedkilling efficacy grade” value (barnyard grass [31]) was 5 (weed kill ratio 90% or more, (practically complete withering)), the “C (oval-leafed pondweed) weedkilling efficacy grade” value (oval-leafed pondweed [32]) was 5 (weed kill ratio 90% or more, (practically complete withering)) and the “O (catchweed) weedkilling efficacy grade” value (catchweed [33]) was 4 (weed kill ratio 70% or more, less than 90%). The “d (soybean) effect on crop grade” value (soybean [34]) was 0 (weed kill ratio 5% or less (practically no effect)), the “e (wheat) effect on crop grade” value (wheat [35]) was 0 (weed kill ratio 5% or less (practically no effect)) and the “B (bulrush) weedkilling efficacy grade” value (bulrush [36]) was 5 (weed kill ratio 90% or more, (practically complete withering)). For the same compound, the “L (redroot pigweed) weedkilling efficacy grade” value (redroot pigweed [37]) was 3 (weed kill ratio 40% or more, less than 70%), the “C (oval-leafed pondweed) weedkilling efficacy grade” value (oval-leafed pondweed [38]) was 5 (weed kill ratio 90% or more, (practically complete withering)) and the “G (wild oat) weedkilling efficacy grade” value (wild oat [39]) was 5 (weed kill ratio 90% or more, (practically complete withering)). For the same compound, the “A (barnyard grass) weedkilling efficacy grade” value (barnyard grass [40]) was 5 (weed kill ratio 90% or more, (practically complete withering)), the “I (Italian ryegrass) weedkilling efficacy grade” value (Italian ryegrass [41]) was 5 (weed kill ratio 90% or more, (practically complete withering)) and the “a (transplanted rice) effect on crop grade” value (transplanted rice) was 1 (weed kill ratio 5% or more, less than 20%). The “P (birds-eye speedwell) weedkilling efficacy grade” value (birds-eye speedwell [42]) was 5 (weed kill ratio 90% or more, (practically complete withering)), the “G (wild oat) weedkilling efficacy grade” value (wild oat [43]) was 4 (weed kill ratio 70% or more, less than 90%) and the “N (chickweed) weedkilling efficacy grade” value (chickweed [44]) was 4 (weed kill ratio 70% or more, less than 90%).
